In data set [1] the test system is Streptococcus-induced rheumatoid arthritis. Description: Streptococcus-induced rheumatoid arthritis (RA) model in rats. Type of data set: in vivo, Lewis rats. The following applies: 15 mpk intragastric daily for 25 days, FIG. 3. The procedure:
In the experiment, six- to nine-week-old female Lewis rats (Beijing Vital River) were used. Each group consisted of 6 rats, and they were given the cell wall peptidoglycan complexes of Streptococcus and several other species of bacteria by intraperitoneal administration (2-3 mg per rat) on D1, and were given the control compound (15 mpk) and Example 5 (15 mpk) by intragastric administration daily for 25 consecutive days. The arthritis in rats was scored in different phases. The scoring criteria are as follows: Scoring according to the degree of lesion (redness and swelling) was performed on a scale of 0-4 points, with a maximum score of 4 for each limb and a total maximum score of 16 for each animal's limbs. The scoring criteria are as follows: 0 points: no redness and swelling; 1 point: 1-2 red and swollen interphalangeal joints; 2 points: 3-4 red and swollen interphalangeal joints; 3 points: more than 4 red and swollen interphalangeal joints; 4 points: severe redness and swelling in toes or fingers to ankle joints or wrist joints.

Data set [2] can be described thus: PK experiment of single intragastric administration to rats. It is filed as in vivo. The following applies: male, Wistar Han, plasma, po, rat, 3 mg/kg, mean. As for the experimental part:
Six- to nine-week-old male Wistar han rats (from Shanghai Sippe-Bk Lab Animal Co., Ltd.) were fasted overnight. Each group consisted of 3 rats, and they were given the control compound, the compound of Example 5 and the compound of Example 6, respectively, by intragastric administration at 3 mg/kg at a volume of 10 mL/kg. 0.2 mL of blood was collected from the jugular vein at each time point, anticoagulated with EDTA-K2 and immediately centrifuged at 4000 rpm at 4° C. for 5 min. The supeatant was collected. The samples were cryopreserved in a freezer at −80° C. before analysis. Time points of blood collection: before administration, 5 min 15 min, 30 min, 1 h, 2 h, 4 h, 7 h and 24 h. […] After blood collection at all of the time points was completed, the animals were euthanized. The plasma samples were analyzed by LC-MS/MS. The data were used to calculate kinetic parameters (Tmax, Cmax, T½ and AUC) in the WinNonlin software.

Data set [3] concerns the target T1, complement factor B in human serum (Homo sapiens, UniProt P00751).
T1 construct: from tissue; host or cells: normal human serum (NHS)
Description: Complement hemolytic activity assay (rabbit erythrocytes, normal human serum). The settings on record: rabbit erythrocytes, normal human serum, 37° C.; read-out: Hemolysis IC50. Type of data set: cell-based. As for the experimental part: The hemolysis experiment was carried out by referring to the description in Xuan Yuan et al., Haematologica. […] Prior to the experiment, the optimal concentration of normal human serum (NHS) required to achieve 100% lysis of rabbit erythrocytes (REs) was obtained by titration testing. […] REs (collected from healthy Japanese big-ear white rabbits) freshly suspended in a GVBO buffer comprising 10 mM Mg-EGTA were added to a final concentration of 1×10^8 cells/mL and incubated at 37° C. for 30 min. A GVBO buffer comprising 10 mM Mg-EGTA and comprising NHS and RE but no test compound was used as a positive control group (100% lysis). A GVBO buffer comprising 10 mM Mg-EGTA and comprising inactivated NHS (heated at 56° C. for 30 min or at 65° C. for 5 min) and RE but no test compound was used as a negative control group (0% lysis). The samples were centrifuged at 2000 g for 5 min, and the supernatant was collected. Absorbance at 415 nm (A415) was measured using a microplate reader (Molecular Devices, SpectraMax i3X). IC50 values were calculated from percent hemolysis as a function of test compound concentration by non-linear regression.

Data set [4] can be described thus: Liver microsomal stability experiment (monkey). Type of data set: in vitro ADME. The following applies: cynomolgus monkey liver microsomes; for half-life at 1 µM: pH 7.4, NADPH, read-out: MMS (monkey) T1/2. As for the experimental part: (§1) A 0.1 M solution of potassium dihydrogen phosphate in distilled water (comprising 1 mM ethylenediaminetetraacetic acid) was taken. Then the pH was adjusted to 7.4 with the 0.1 M solution of dipotassium phosphate in distilled water (comprising 1 mM ethylenediaminetetraacetic acid).
Monkey: Cynomolgus Monkey Liver Microsomes, Cat. No.: LM-SXH-02M, RILD Research Institute for Liver Diseases (Shanghai) Co. Ltd.
(§2) A 10 mM solution of each of the control compound and test compounds was prepared in DMSO. Then 10 μL of the solution was added to 190 μL of acetonitrile to form a 0.5 mM mother liquor. 1.5 μL of the 0.5 mM compound mother liquor was measured out, and […] of 20 mg/mL liver microsomes and 479.75 μL of the buffer were added. (The actual preparation amount can be adjusted according to use).
(§3) A 10 mg/mL solution of reduced coenzyme II (NADPH) was prepared in the buffer. A 96-well plate was placed on ice. Wells corresponding to different time points (0, 10, 30, 60 and 90 min, Non-NADPH) were set for each compound. 30 μL of the working solution was added to each well. For 0 min wells, 155 μL of glacial acetonitrile solution (the internal standard concentration was 1 μM) was added first, and after the mixtures were well mixed using a pipet, 15 μL of NADPH (10 mg/mL) was added. Before the reactions were started, the 96-well plate was pre-incubated on a microplate shaker at 37° C. for 5 min. Then 15 μL of NADPH (10 mg/mL) was added to each well to start the metabolic reactions. After the reactions were carried out for 10, 30, 60 and 90 min, 155 μL of glacial acetonitrile solution (the internal standard concentration was 1 μM) was added to the corresponding wells to terminate the reactions. After 90 min, the reaction in the Non-NADPH system was terminated by adding 155 μL of glacial acetonitrile solution (the internal standard concentration was 1 μM). After the reaction was completed, the 96-well plate was shaken on a microplate shaker (600 rpm) for 10 min and then centrifuged at 4° C. at 4000 g for 15 min. 50 μL of the supernatant was added to a new 2 mL 96-well plate, and 300 μL of deionized water was added. The mixture was analyzed on an AB SCIEX ExionLC-Triple Quad 5500 high performance liquid chromatograph-mass spectrometer. The Analyst 1.6.3 software was used.

Data set [5] can be described thus: Liver microsomal stability experiment (rat). Type of data set: in vitro ADME. The settings on record: for half-life at 1 µM: SD, pH 7.4, NADPH, read-out: MMS (rat) T1/2; for half-life at 1 µM / MMS (rat) Remaining (T = 90 min): rat liver microsomes; for liver microsomal stability (in words): statement covers rat, monkey and human liver microsomes (Table 3). As for the experimental part:
as §1
Rat: SD Rat Liver Microsomes, Cat. No.: LM-DS-02M, RILD Research Institute for Liver Diseases (Shanghai) Co. Ltd.
as §2, §3

The target of a further data set is Complement factor B (Homo sapiens, UniProt P00751). Description: Optical surface plasmon resonance (SPR) binding capacity assay. The following applies: for Rmax (RU): test compound 500 μM, 25° C., 1:1 binding model. The procedure:
An SPR experiment was carried out at 25° C. In the experiment, a PBS buffer supplemented with 0.05% (v/v) P20 and 5% DMSO was used as a running buffer, and the analytical instrument Biacore 8K of GE Healthcare was used. A CM7 ship (GE Healthcare) was activated with 400 mM EDC and 100 mM NHS at a flow rate of 30 μL/min for 420 s. […] Then the assay chip was treated with 1 M ethanolamine hydrochloride at a flow rate of 10 μL/min for 300 s for chip blocking. The concentration of the test compound was 500 μM, the binding time was 120 s, and the dissociation time was 300 s. Data analysis was performed using a 1:1 binding model (Biacore Insight Evalution Software, Version 2.0.15.12933).
A general note: Surface plasmon resonance follows binding to a sensor surface in real time, without labels.

Data set [6] is described as follows: Liver microsomal stability experiment (human). It is filed as in vitro ADME. The settings on record: for MMS (human) Remaining (T = 90 min): human liver microsomes; for half-life at 1 µM: pooled liver microsomes, pH 7.4, NADPH, read-out: MMS (human) T1/2. As for the experimental part: as §1
Human – Pooled Human Liver Microsomes (Mongolian), Cat. No.: LM-R-02M, RILD Research Institute for Liver Diseases (Shanghai) Co. Ltd.
as §2, §3

T1 sequence (P00751 26-764): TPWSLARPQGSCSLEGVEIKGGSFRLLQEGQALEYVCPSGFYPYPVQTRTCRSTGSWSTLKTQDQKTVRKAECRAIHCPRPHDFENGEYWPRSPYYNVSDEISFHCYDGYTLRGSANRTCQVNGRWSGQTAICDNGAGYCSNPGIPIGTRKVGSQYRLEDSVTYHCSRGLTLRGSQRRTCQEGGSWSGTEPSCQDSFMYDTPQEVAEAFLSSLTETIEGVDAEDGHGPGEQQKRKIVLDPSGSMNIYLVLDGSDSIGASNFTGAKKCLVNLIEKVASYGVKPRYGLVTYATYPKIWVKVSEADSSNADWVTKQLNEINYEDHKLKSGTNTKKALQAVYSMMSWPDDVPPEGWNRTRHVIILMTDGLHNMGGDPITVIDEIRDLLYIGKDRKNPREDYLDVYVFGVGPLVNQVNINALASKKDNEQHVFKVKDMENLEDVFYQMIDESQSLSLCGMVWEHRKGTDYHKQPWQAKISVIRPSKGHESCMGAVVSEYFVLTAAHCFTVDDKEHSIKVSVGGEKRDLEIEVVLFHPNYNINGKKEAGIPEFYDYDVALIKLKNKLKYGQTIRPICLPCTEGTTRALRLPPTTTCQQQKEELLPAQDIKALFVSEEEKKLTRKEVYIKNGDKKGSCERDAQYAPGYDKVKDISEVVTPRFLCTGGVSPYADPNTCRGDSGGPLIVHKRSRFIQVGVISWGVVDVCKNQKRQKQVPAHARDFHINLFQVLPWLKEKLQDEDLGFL
Chain of Complement factor B (P00751 26-764): as above

Turning to `CCO[C@H]1CCN(Cc2c(OC)cc(C)c3[nH]ccc23)[C@H](c2ccc(C(=O)O)cc2)C1` [Control compound, reference compound], the arthritis score result in data set [1] was “can improve the arthritis score”. In data set [2], the AUC(0-inf) (in general, the area under the concentration-time curve extrapolated to infinity) came out at 2730 ng·h/mL; the AUC(0-t) (in general, exposure summed from dosing to a finite time, without extrapolation to infinity) was found to be 2530 ng·h/mL; the highest level (Cmax) was 784 ng/mL; the time of peak concentration (Tmax) – broadly, the time at which the peak concentration occurs – turned out to be 0.33 h. The molecule further showed a half-life in data set [2] of 2.42 h.
On to `COc1cc(C)c2[nH]ccc2c1CN1CC[C@H](OC2CC2)C[C@H]1c1ccc(C(=O)O)cc1` [Example 3], for which the concentration for half-maximal inhibition (IC50) – broadly, the concentration at which inhibition is half-maximal – in data set [3] turned out to be 216 nM.
In the case of `COc1cc(C)c2[nH]ccc2c1CN1CC[C@H](OC2CCC2)C[C@H]1c1ccc(C(=O)O)cc1` [Example 4], in data set [4], the “MMS (monkey) Remaining (T = 90 min)” value turned out to be 80.68% and the half-life at 1 µM was determined as 6.07 h. In data set [5], the half-life at 1 µM turned out to be 3.68 h, the “MMS (rat) Remaining (T = 90 min)” value turned out to be 72.23% and the “liver microsomal stability (in words)” value was “more significant liver microsomal stability”. Further, the “Rmax (RU)” value at Complement factor B is 29.1 RU. The IC50 in data set [3] was 280 nM. In addition, in data set [6], the “MMS (human) Remaining (T = 90 min)” value was determined as 84.79% and the half-life at 1 µM is 6.94 h.
In the case of `COc1cc(C)c2[nH]ccc2c1CN1CC[C@H](OCC2CCC2)C[C@H]1c1ccc(C(=O)O)cc1` [Example 6], in data set [4], the “MMS (monkey) Remaining (T = 90 min)” value stood at 60.37% and the half-life at 1 µM was 2.17 h. Further, in data set [5], the half-life at 1 µM turned out to be 0.986 h, the “MMS (rat) Remaining (T = 90 min)” value was 33.55% and the “liver microsomal stability (in words)” value is “more significant liver microsomal stability”. For the same molecule, the “binding capacity to the target protein compared with the control compound” value at Complement factor B (at a concentration of 500 μM) is recorded as “significantly better than the control compound”. Moreover, the “Rmax (RU)” value at Complement factor B is on record as 106.5 RU. In addition, the IC50 in data set [3] came out at 217 nM. In data set [2], the total exposure AUC(0-inf) was 2260 ng·h/mL, the exposure AUC(0-t) came to 2190 ng·h/mL, the Cmax (usually the peak of the concentration-time curve) turned out to be 1180 ng/mL and the time to peak (Tmax) came to 0.25 h. Also, the half-life in data set [2] is 2.28 h. In data set [6], the “MMS (human) Remaining (T = 90 min)” value is reported as 74.57% and the half-life at 1 µM is 3.96 h.
For the molecule `COc1cc(C)c2[nH]ccc2c1CN1CC[C@H](OC(F)(F)F)C[C@H]1c1ccc(C(=O)O)cc1` [Example 7], the “Rmax (RU)” value on Complement factor B turned out to be 21.6 RU. Also, the half-inhibitory concentration (IC50) in data set [3] is 228 nM.
Consider `COc1cc(C)c2[nH]ccc2c1CN1CCC2(CC1c1ccc(C(=O)O)cc1)CC2(F)F` (stereo not drawn) [Example 8], for which the “Rmax (RU)” value on Complement factor B was determined as 47.7 RU. In addition, the IC50 in data set [3] was 358 nM.
For `COc1cc(C)c2[nH]ccc2c1CN1CCC(C(F)(F)F)CC1c1ccc(C(=O)O)cc1` (stereo not drawn) [Example 9] the same measures were 23.3 RU and 725 nM.
As for `COc1cc(C)c2[nH]ccc2c1CN1CCC(C(F)F)CC1c1ccc(C(=O)O)cc1` (stereo not drawn) [Example 10], on Complement factor B, the “Rmax (RU)” value amounted to 30.7 RU. In data set [3], the IC50 worked out at 611 nM.
Turning to `COc1cc(C)c2[nH]ccc2c1CN1CC[C@H](OC2CC(F)(F)C2)C[C@H]1c1ccc(C(=O)O)cc1` [Example 16], the IC50 in data set [3] is 188 nM.
For the molecule `COc1cc(C)c2[nH]ccc2c1CN1CCC(C)(F)CC1c1ccc(C(=O)O)cc1` (stereo not drawn) [Example 17], in data set [3], the IC50 was determined as 391 nM.
For the molecule `COc1cc(C)c2[nH]ccc2c1CN1CCC2CC2[C@H]1c1ccc(C(=O)O)cc1` (stereo partly drawn) [Example 22], the concentration for half-maximal inhibition (IC50) in data set [3] amounted to 184 nM.
As to `CCOC1CC(c2ccc(C(=O)O)cc2)N(Cc2c(OC)cc(C)c3[nH]ccc23)C2CC12` (stereo not drawn) [Example 23], the IC50 in data set [3] was found to be 853 nM.
Turning to `COc1cc(C)c2[nH]ccc2c1CN1CC[C@H](OCC2CC2(F)F)C[C@H]1c1ccc(C(=O)O)cc1` (stereo partly drawn) [Example 25], in data set [3], the IC50 stood at 234 nM.
Take `COc1cc(C)c2[nH]ccc2c1CN1CC[C@H](OCC2CC2)C[C@H]1c1ccc(-c2nn[nH]n2)cc1` [Example 26]: the half-inhibitory concentration (IC50) in data set [3] was determined as 319 nM.

The values above are taken from patent US20230286947A1, “COMPLEMENT FACTOR B INHIBITOR, AND PHARMACEUTICAL COMPOSITION, PREPARATION METHOD AND USE THEREOF” (SHANGHAI MEIYUE BIOTECH DEVELOPMENT CO. LTD, priority 2020, published 2023).
